For experiment [1], the target named is T1, full-length beta-Catenin (Uniprot ID P35222) (Homo sapiens, UniProt P35222).
T1 construct: 10 nM full-length beta-Catenin (Uniprot ID P35222)
T1 sequence (P35222 1-781): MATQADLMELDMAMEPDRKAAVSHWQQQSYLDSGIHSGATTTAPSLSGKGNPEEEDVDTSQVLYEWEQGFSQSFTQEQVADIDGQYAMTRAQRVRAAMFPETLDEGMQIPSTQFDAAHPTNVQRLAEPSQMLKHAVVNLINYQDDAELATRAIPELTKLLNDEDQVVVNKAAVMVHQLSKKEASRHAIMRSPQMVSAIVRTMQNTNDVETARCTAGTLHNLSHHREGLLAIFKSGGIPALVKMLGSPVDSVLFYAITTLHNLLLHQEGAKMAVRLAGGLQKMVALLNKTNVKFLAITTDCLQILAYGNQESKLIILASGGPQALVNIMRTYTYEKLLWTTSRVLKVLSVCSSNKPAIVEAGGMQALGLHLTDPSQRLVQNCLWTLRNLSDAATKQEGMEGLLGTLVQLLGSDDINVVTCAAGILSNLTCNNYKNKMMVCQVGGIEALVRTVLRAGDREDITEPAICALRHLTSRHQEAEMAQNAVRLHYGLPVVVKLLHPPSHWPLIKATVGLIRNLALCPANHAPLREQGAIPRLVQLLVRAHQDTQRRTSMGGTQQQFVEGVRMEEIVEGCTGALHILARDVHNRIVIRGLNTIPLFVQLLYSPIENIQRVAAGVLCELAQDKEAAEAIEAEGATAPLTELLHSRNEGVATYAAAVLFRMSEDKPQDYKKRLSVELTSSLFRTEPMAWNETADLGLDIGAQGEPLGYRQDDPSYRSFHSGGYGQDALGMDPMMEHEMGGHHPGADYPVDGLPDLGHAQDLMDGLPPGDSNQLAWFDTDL
Put plainly: Fluorescence polarization IC50 (beta-catenin / 5FAM-TCF4 10-53 competition). Format: binding. The settings on record: fluorescence polarization; read-out: beta-Catenin FP IC50. (In general: Fluorescence polarisation rises when a labelled molecule tumbles more slowly, as on binding a larger partner.)

Experiment [2] deals with T2, beta-catenin/TCF4 engagement (Homo sapiens, UniProt P35222).
T2 construct: expressed in transfected cells; host or cells: HEK293
T2 sequence (P35222 1-781): T1 sequence (P35222 1-781)
Put plainly: Nano-BRET target engagement assay (B-cat-Halo & TCF4-Luc in HEK293 cells). Format: cell-based. The settings on record: read-out: NanoBRET Abs IC50.

This note sets out measurements from patent publication US20240116985A1, “STAPLED PEPTIDES AND METHODS THEREOF” (priority 2020, published 2024).

pIC50: −log10 of the molar value. Where two headings read alike, the source gives them in different places.

For orientation: pIC50 means −log10 of the IC50, conventionally taken in molar units. Take `CC(=O)N1CCC[C@]12CC=CCCCC1(CCCC=CCCCOC(=O)N3CC[C@@](C(=O)N[C@@H](Cc4ccsc4)C(=O)N[C@@H](Cc4csc5ccccc45)C(=O)N[C@@H](CC(C)(C)C)C(N)=O)(C3)NC(=O)[C@H](CC(C)C)NC(=O)[C@H](Cc3ccccc3)NC(=O)[C@H](C)NC(=O)[C@H](CO)NC(=O)[C@H](Cc3cccc(C(=O)O)c3)NC(=O)[C@H](CC(=O)O)NC1=O)NC(=O)[C@H](CC(C)(C)C)NC(=O)[C@H](CC(=O)O)NC2=O` (stereo partly drawn) [I-2195, Ac-PL3-Asp-Npg-B5-Asp-3COOHF-Ser-Ala-Phe-Leu-PyrS2-3Thi-BztA-Npg-NH2]: the pIC50 is 7.21 in experiment [1] and 4.68 in experiment [2].
The corresponding values for `CC(=O)N1CCC[C@]12CC=CCCCC1(CCCC=CCCCOC(=O)N3CC[C@@](C(=O)N[C@@H](Cc4ccsc4)C(=O)N[C@@H](Cc4csc5ccccc45)C(=O)N[C@@H](CO)C(N)=O)(C3)NC(=O)[C@H](CC(C)C)NC(=O)[C@H](Cc3ccccc3)NC(=O)[C@H](C)NC(=O)[C@H](C)NC(=O)[C@H](Cc3ccc(F)c(C(=O)O)c3)NC(=O)[C@H](CC(=O)O)NC1=O)NC(=O)[C@H](CC(C)(C)C)NC(=O)[C@H](CC(=O)O)NC2=O` (stereo partly drawn) [I-2202, Ac-PL3-Asp-Npg-B5-Asp-4F3COOHF-Ala-Ala-Phe-Leu-PyrS2-3Thi-BztA-Ser-NH2] are 7.96 and 5.30.
For `CC(=O)N1CCC[C@]12CC=CCCCC1(CCCC=CCCCOC(=O)N3CC[C@@](C(=O)N[C@@H](Cc4ccccc4Cl)C(=O)N[C@@H](Cc4csc5ccccc45)C(=O)N[C@@H](CCC(N)=O)C(N)=O)(C3)NC(=O)[C@H](CC(C)C)NC(=O)[C@H](Cc3ccccc3)NC(=O)[C@H](C)NC(=O)[C@H](C)NC(=O)[C@H](Cc3ccc(F)c(C(=O)O)c3)NC(=O)[C@H](CC(=O)O)NC1=O)NC(=O)[C@H](CC(C)(C)C)NC(=O)[C@H](CC(=O)O)NC2=O` (stereo partly drawn) [I-2203, Ac-PL3-Asp-Npg-B5-Asp-4F3COOHF-Ala-Ala-Phe-Leu-PyrS2-2C1F-BztA-Gln-NH2], in that order: 8.05 and 5.54.
For `CC(=O)N1CCC[C@]12CC=CCCCC1(CCCC=CCCCOC(=O)N3CC[C@@](C(=O)N[C@@H](Cc4ccccc4Cl)C(=O)N[C@@H](Cc4csc5ccccc45)C(=O)N[C@@H](CCC(N)=O)C(N)=O)(C3)NC(=O)[C@H](CC(C)C)NC(=O)[C@H](Cc3ccccc3)NC(=O)[C@H](C)NC(=O)[C@H](C)NC(=O)[C@H](Cc3ccc(F)c(C(=O)O)c3)NC(=O)[C@H](CC(=O)O)NC1=O)NC(=O)[C@H](CC(C)(C)C)NC(=O)[C@H](CC(=O)O)NC2=O` (stereo partly drawn) [I-2204, Ac-PL3-Asp-Npg-B5-Asp-4F3COOHF-Ala-Ala-Phe-Leu-PyrS2-2C1F-BztA-Gln-NH2], in that order: 8.00 and 5.48.
Consider `CC(=O)N1CCC[C@]12CC=CCCCC1(CCCC=CCCCOC(=O)N3CC[C@@](C(=O)N[C@@H](Cc4ccccc4Cl)C(=O)N[C@@H](Cc4csc5ccccc45)C(=O)N[C@@H](CO)C(N)=O)(C3)NC(=O)[C@H](CC(C)C)NC(=O)[C@H](Cc3ccccc3)NC(=O)[C@H](C)NC(=O)[C@H](C)NC(=O)[C@H](Cc3ccc(F)c(C(=O)O)c3)NC(=O)[C@H](CC(=O)O)NC1=O)NC(=O)[C@H](CC(C)(C)C)NC(=O)[C@H](CC(=O)O)NC2=O` (stereo partly drawn) [I-2205, Ac-PL3-Asp-Npg-B5-Asp-4F3COOHF-Ala-Ala-Phe-Leu-PyrS2-2C1F-BztA-Ser-NH2], for which the pIC50 in experiment [1] was 7.74; in experiment [2], 5.49.
In the case of `CC(=O)N1CCC[C@]12CC=CCCCC1(CCCC=CCCCOC(=O)N3CC[C@@](C(=O)N[C@@H](Cc4ccsc4)C(=O)N[C@@H](Cc4csc5ccccc45)C(=O)N[C@@H](C)C(N)=O)(C3)NC(=O)[C@H](CC(C)C)NC(=O)[C@H](Cc3ccccc3)NC(=O)[C@H](C)NC(=O)[C@H](CCC(N)=O)NC(=O)[C@H](Cc3ccc(F)c(C(=O)O)c3)NC(=O)[C@H](CC(=O)O)NC1=O)NC(=O)[C@H](CC(C)(C)C)NC(=O)[C@H](CC(=O)O)NC2=O` (stereo partly drawn) [I-2206, Ac-PL3-Asp-Npg-B5-Asp-4F3COOHF-Gln-Ala-Phe-Leu-PyrS2-3Thi-BztA-Ala-NH2], the pIC50 is 8.15 in experiment [1] and 5.15 in experiment [2].
As for `CC(=O)N1CCC[C@]12CC=CCCCC1(CCCC=CCCCOC(=O)N3CC[C@@](C(=O)N[C@@H](Cc4ccsc4)C(=O)N[C@@H](Cc4csc5ccccc45)C(=O)N[C@@H](C)C(N)=O)(C3)NC(=O)[C@H](CC(C)C)NC(=O)[C@H](Cc3ccccc3)NC(=O)[C@H](C)NC(=O)C(C)(C)NC(=O)[C@H](Cc3ccc(F)c(C(=O)O)c3)NC(=O)[C@H](CC(=O)O)NC1=O)NC(=O)[C@H](CC(C)(C)C)NC(=O)[C@H](CC(=O)O)NC2=O` (stereo partly drawn) [I-2207, Ac-PL3-Asp-Npg-B5-Asp-4F3COOHF-Aib-Ala-Phe-Leu-PyrS2-3Thi-BztA-Ala-NH2], the results for the pIC50 in experiment [1] and in experiment [2] (absolute IC50) were 7.80 and 5.49, respectively.
For the compound `CC(=O)N1CCC[C@]12CC=CCCCC1(CCCC=CCCCOC(=O)N3CC[C@@](C(=O)N[C@@H](Cc4ccsc4)C(=O)N[C@@H](Cc4csc5ccccc45)C(=O)N[C@@H](CCC(N)=O)C(N)=O)(C3)NC(=O)[C@H](CC(C)C)NC(=O)[C@H](Cc3ccccc3)NC(=O)[C@H](C)NC(=O)[C@H](C)NC(=O)[C@H](Cc3cc(C(=O)O)cc(C(F)(F)F)c3)NC(=O)[C@H](CC(=O)O)NC1=O)NC(=O)[C@H](CC(C)(C)C)NC(=O)[C@H](CC(=O)O)NC2=O` (stereo partly drawn) [I-2208, Ac-PL3-Asp-Npg-B5-Asp-5F3Me3COOHF-Ala-Ala-Phe-Leu-PyrS2-3Thi-BztA-Gln-NH2], the pIC50 is 7.57 in experiment [1] and 5.24 in experiment [2] (absolute IC50).
For the compound `CC(=O)N1CCC[C@]12CC=CCCCC1(CCCC=CCCCOC(=O)N3CC[C@@](C(=O)N[C@@H](Cc4ccsc4)C(=O)N[C@@H](Cc4csc5ccccc45)C(=O)N[C@@H](CO)C(N)=O)(C3)NC(=O)[C@H](CC(C)C)NC(=O)[C@H](Cc3ccccc3)NC(=O)[C@H](C)NC(=O)[C@H](C)NC(=O)[C@H](Cc3cc(C(=O)O)cc(C(F)(F)F)c3)NC(=O)[C@H](CC(=O)O)NC1=O)NC(=O)[C@H](CC(C)(C)C)NC(=O)[C@H](CC(=O)O)NC2=O` (stereo partly drawn) [I-2209, Ac-PL3-Asp-Npg-B5-Asp-5F3Me3COOHF-Ala-Ala-Phe-Leu-PyrS2-3Thi-BztA-Ser-NH2], the pIC50 was 7.30 in experiment [1] and 4.73 in experiment [2] (absolute IC50).
As to `CC(=O)N1CCC[C@]12CC=CCCCC1(CCCC=CCCCOC(=O)N3CC[C@@](C(=O)N[C@@H](Cc4ccccc4Cl)C(=O)N[C@@H](Cc4csc5ccccc45)C(=O)N[C@@H](CO)C(N)=O)(C3)NC(=O)[C@H](CC(C)C)NC(=O)[C@H](Cc3ccccc3)NC(=O)[C@H](C)NC(=O)[C@H](C)NC(=O)[C@H](Cc3cc(C(=O)O)cc(C(F)(F)F)c3)NC(=O)[C@H](CC(=O)O)NC1=O)NC(=O)[C@H](CC(C)(C)C)NC(=O)[C@H](CC(=O)O)NC2=O` (stereo partly drawn) [I-2210, Ac-PL3-Asp-Npg-B5-Asp-5F3Me3COOHF-Ala-Ala-Phe-Leu-PyrS2-2C1F-BztA-Ser-NH2], the figures for the pIC50 in experiment [1] and in experiment [2] (absolute IC50) were 6.89 and 4.91, respectively.
On to `CC(=O)N1CCC[C@]12CC=CCCCC1(CCCC=CCCCOC(=O)N3CC[C@@](C(=O)N[C@@H](Cc4ccsc4)C(=O)N[C@@H](Cc4csc5ccccc45)C(=O)N[C@@H](C)C(N)=O)(C3)NC(=O)[C@H](CC(C)C)NC(=O)[C@H](Cc3ccccc3)NC(=O)[C@H](C)NC(=O)[C@H](CCC(N)=O)NC(=O)[C@H](Cc3cc(C(=O)O)cc(C(F)(F)F)c3)NC(=O)[C@H](CC(=O)O)NC1=O)NC(=O)[C@H](CC(C)(C)C)NC(=O)[C@H](CC(=O)O)NC2=O` (stereo partly drawn) [I-2211, Ac-PL3-Asp-Npg-B5-Asp-5F3Me3COOHF-Gln-Ala-Phe-Leu-PyrS2-3Thi-BztA-Ala-NH2], for which the pIC50 in experiment [1] was 7.64; in experiment [2] (absolute IC50) it was 4.89.
In the case of `CC(=O)N1CCC[C@]12CC=CCCCC1(CCCC=CCCCOC(=O)N3CC[C@@](C(=O)N[C@@H](Cc4ccsc4)C(=O)N[C@@H](Cc4ccc(Cl)c(Cl)c4)C(=O)N[C@@H](CCC(N)=O)C(N)=O)(C3)NC(=O)[C@H](CC(C)C)NC(=O)[C@H](Cc3ccccc3)NC(=O)[C@H](C)NC(=O)[C@H](C)NC(=O)[C@H](Cc3cccc(C(=O)O)c3)NC(=O)[C@H](CC(=O)O)NC1=O)NC(=O)[C@H](CC(C)(C)C)NC(=O)[C@H](CC(=O)O)NC2=O` (stereo partly drawn) [I-2216, Ac-PL3-Asp-Npg-B5-Asp-3COOHF-Ala-Ala-Phe-Leu-PyrS2-3Thi-34C1F-Gln-NH2], the results for the pIC50 in experiment [1] and in experiment [2] (absolute IC50) were 8.15 and 5.47, respectively.
Take `CC(=O)N1CCC[C@]12CC=CCCCC1(CCCC=CCCCOC(=O)N3CC[C@@](C(=O)N[C@@H](Cc4ccsc4)C(=O)N[C@@H](Cc4ccc(Cl)c(Cl)c4)C(=O)N[C@@H](C)C(N)=O)(C3)NC(=O)[C@H](C(C)C)NC(=O)[C@H](Cc3ccccc3)NC(=O)[C@H](C)NC(=O)[C@H](CCC(N)=O)NC(=O)[C@H](Cc3cccc(C(=O)O)c3)NC(=O)[C@H](CC(=O)O)NC1=O)NC(=O)[C@H](CC(C)(C)C)NC(=O)[C@H](CC(=O)O)NC2=O` (stereo partly drawn) [I-2217, Ac-PL3-Asp-Npg-B5-Asp-3COOHF-Gln-Ala-Phe-Val-PyrS2-3Thi-34C1F-Ala-NH2]: the figures for the pIC50 in experiment [1] and in experiment [2] (absolute IC50) were 8.22 and 5.68, respectively.
